Test results: patent US6673354B2, “Compositions and methods for treating papillomavirus-infected cells” (priority 1998, dated 2004)
Where no end group is shown, it is not given here.

How the values were obtained:
[1] = molecular target: T1, interaction between HPV16 E1 and E2 (Human papillomavirus type 16, UniProt P03114); test: In vitro HPV E1-E2 binding assay (co-immunoprecipitation / Western blot), HPV16 E1 and HPV16 E2; conditions: increasing peptide concentrations, FIG. 6A
T1 construct: made in house; host or cells: Hi-Five insect cells infected with recombinant baculovirus (pVL1392); nuclear extracts
T1 sequence (P03114 whole entry, looked up): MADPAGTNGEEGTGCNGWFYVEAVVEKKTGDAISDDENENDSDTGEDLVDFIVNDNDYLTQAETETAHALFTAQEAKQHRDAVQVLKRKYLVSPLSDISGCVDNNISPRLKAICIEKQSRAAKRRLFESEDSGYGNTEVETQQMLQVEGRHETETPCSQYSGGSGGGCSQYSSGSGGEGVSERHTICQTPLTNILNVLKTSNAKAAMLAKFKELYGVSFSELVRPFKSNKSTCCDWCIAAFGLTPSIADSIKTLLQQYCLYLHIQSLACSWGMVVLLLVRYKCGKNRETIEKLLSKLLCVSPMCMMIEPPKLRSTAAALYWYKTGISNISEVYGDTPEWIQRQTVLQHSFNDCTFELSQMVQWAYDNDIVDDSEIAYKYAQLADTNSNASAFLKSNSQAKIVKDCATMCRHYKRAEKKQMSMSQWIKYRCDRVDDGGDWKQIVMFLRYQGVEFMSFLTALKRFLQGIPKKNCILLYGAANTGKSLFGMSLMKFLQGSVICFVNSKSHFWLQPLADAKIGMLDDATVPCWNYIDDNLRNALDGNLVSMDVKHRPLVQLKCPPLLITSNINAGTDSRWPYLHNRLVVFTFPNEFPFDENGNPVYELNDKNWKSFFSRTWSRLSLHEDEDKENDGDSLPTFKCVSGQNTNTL
Method: (§1) In vitro HPV E1-E2 binding assay. 300-500 ng protein from HPV16 or HPV11 EE-E1 expressing recombinant baculovirus infected cell nuclear extracts and 80-120 ng from HPV E2 baculovirus infected cell nuclear extracts were incubated in 500 μl NET-gel buffer (50 mM Tris-HCl pH7.5, 150 mM NaCl, 0.1% NP-40, 1 mM EDTA, 0.25% gelatin) at 4° C. for one hour. 1-2 μg anti-EE monoclonal antibody was added and incubated with shaking at 4° C. for one hour. Immune complexes were precipitated with protein-G agarose beads and washed twice for 30 minutes with ice cold NET-gel buffer. Precipitated proteins were detected by Western blot using appropriate primary antibodies and anti-rabbit IgG HRP or anti-mouse IgG HRP (Amersham). Membranes were blocked for one hour in TNET (10 mM Tris 7.5, 2.5 mM EDTA, 50 mM NaCl, 0.1% Tween-20) containing 4% (w/v) dry milk. Washes and antibody reactions were carried out in TNET, and proteins were visualized by chemiluminescence (Reneaissance ECL, NEN) and autoradiography. Bands were quantitated using the NIH image program.
(§2) Therefore, we reasoned that a peptide encompassing this domain of HPV16 E2 might inhibit interaction between HPV16 E1 and E2, thereby inhibiting HPV16 DNA replication (FIG. 5). In order to test this possibility, HPV16 E2 and epitope tagged full length HPV16 E1 (EE16-E1) proteins were expressed separately using baculovirus vectors. EE-E1 and associated E2 proteins were immunoprecipitated using an anti-EE epitope monoclonal antibody. Precipitated E2 was detected by Western blot using polyclonal antiserum raised to the DNA binding domain of HPV16 E2 (35). As shown in lane 2 of FIG. 6A, E2 co-immunoprecipitated with EE16-E1, but was not precipitated by the EE epitope antibody in the absence of EE16-E1 (lane 1). Peptides encompassing HPV16 E2 amino acids 29-51 (E2N-WP23) or residues 33-47 (E2N-WP15) of HPV16 E2 were then tested for inhibition of E1-E2 interaction. These peptide sequences were derived from the sequence of HPV16 E2, and were based on an alignment of amino terminal residues that are conserved among the papillomavirus E2 proteins (FIG. 5). […] Both the HPV16 E2 protein itself and the E2 derived peptides act specifically in these assays, since the E39A replication defective HPV16 E2 mutant bound only slightly to EE16-E1 (lanes 14). […] These peptides are named E2N-MP23 and E2N-MP15, respectively (see FIG. 5). […] We have previously shown that a domain spanning amino acids 421-647 of the HPV16 E1 carboxy terminus is necessary and sufficient for E2 interaction (45).

[2] = test system: in vitro HPV16 DNA replication; test: In vitro replication of HPV16 DNA (293 cell extract, EE-E1, HPV16 E2); type: biochemical; conditions: 40 ng EE-E1 and 6 ng HPV16 E2, FIG. 7
Method: In vitro replication reactions. In vitro replication reactions were essentially as described by Kuo et al. (18) in 25 μl reactions at 37° C. for indicated times. Standard reactions were for 2 hours, and were terminated by addition of 200 μl stop solution (20 mM Tris-HCl pH 7.5, 10 mM EDTA, 0.1% SDS, and 20 μg/ml RNase A). After incubation at 37° C. for 15 minutes, proteinase K was added (200 μg/ml) and incubation was continued 30 minutes. Samples were extracted with 250 μl phenol/chloroform/isoamyl alcohol (25:24:1), ethanol precipitated, washed with 70% ethanol, dried, resuspended in 20-30μl TE, and analyzed on a 0.8% agarose gel (TAE). The agarose gel was dried onto Hybond N+ membrane (Amersham), and replicated DNA was visualized by autoradiography. Bands were quantitated by Phosphorimager analysis. Replication templates were pKS7838-7905 (nt7838-7905/1-130) containing the HPV16 replication origin, and pUC7874-99 containing the HPV11 origin of replication (nt7874-7933/1-99). pUC7874-99 was a generously provided by Dr. Louise Chow.
We sought to establish a system for the study of HPV16 DNA replication in vitro, and to determine whether specific interaction between HPV16 E1 and E2 was required for HPV16 DNA replication in this system. […] As has been documented for other papillomavirus E1 proteins, some replication was observed using relatively large amounts of E1 in the absence of E2 (lanes 2 through 7) (6, 16, 22, 33, 40, 48). […] Replication in this assay is ori-dependent, since the small amount of replication of the pKS plasmid lacking the HPV16 origin detected at high concentrations of EE-E1 (FIG. 3B, lanes 1-6) was not stimulated by E2 (FIG. 1B, lanes 7-12).
Since the E2N-WP23 and E2N-WP 15 peptides could inhibit interaction between […] E1 and E2, their ability to inhibit in vitro HPV16 DNA replication was also tested (FIGS. 7A and 7B).

[3] = molecular target: T2, HPV-16 E1-E2 interaction (Human papillomavirus type 16, UniProt P03114); test: In vitro HPV E1-E2 competition binding assay (HPV-16 EE-E1C and HPV-16 E2); conditions: 10 μM, 20 μM, and 40 μM peptide, FIG. 14
T2 construct: The carboxy terminus of HPV16-E1, from amino acid 424 to 649, is the minimal domain; made in house; host or cells: E2: nuclear extract of baculovirus-infected Hi-Five cells
T2 sequence (P03114 whole entry, looked up): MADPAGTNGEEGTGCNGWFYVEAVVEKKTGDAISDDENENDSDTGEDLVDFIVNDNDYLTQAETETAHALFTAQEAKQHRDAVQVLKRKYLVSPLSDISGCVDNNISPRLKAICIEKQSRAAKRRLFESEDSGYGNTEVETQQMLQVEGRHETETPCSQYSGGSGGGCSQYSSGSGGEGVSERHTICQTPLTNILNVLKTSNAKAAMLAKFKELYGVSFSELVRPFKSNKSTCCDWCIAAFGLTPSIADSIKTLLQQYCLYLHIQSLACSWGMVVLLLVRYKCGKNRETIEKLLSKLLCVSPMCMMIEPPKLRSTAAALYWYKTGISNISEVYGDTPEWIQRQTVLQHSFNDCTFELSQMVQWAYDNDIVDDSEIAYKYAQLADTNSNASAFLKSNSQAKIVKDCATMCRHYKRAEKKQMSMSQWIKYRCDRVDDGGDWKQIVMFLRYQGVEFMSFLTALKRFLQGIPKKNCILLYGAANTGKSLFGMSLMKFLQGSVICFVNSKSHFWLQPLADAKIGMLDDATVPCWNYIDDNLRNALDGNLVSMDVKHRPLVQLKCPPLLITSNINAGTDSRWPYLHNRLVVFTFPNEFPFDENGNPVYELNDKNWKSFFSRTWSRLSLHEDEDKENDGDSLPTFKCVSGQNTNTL
Method: Use of EE-EIC. The carboxy terminus of HPV16-E1, from amino acid 424 to 649, is the minimal domain necessary for interaction with E2 (Yasugi et al. 1997). An epitope tagged form of this domain (EE-EIC) was used in the E1-E2 interaction assays presented here.
In vitro HPV EI-E2 competition binding assay. HPV-16 EE-EIC (240 ng) in 500 1 NET gel buffer (50 mM Tris-HCI [pH 7.5 ], 150 mM NaCl, 0.1% NP-40, 1 mM EDTA, 0.25% gelatin) were pre-incubated with 0 μM, 10 μM, 20 μM, or 40 μM peptide for 10 minutes on ice. The final concentration of DMSO, the peptide solvent, was kept constant in all samples. Nuclear extract containing HPV-16 E2 was then added, and the mixture was incubated with shaking at 4° C. for 1 hour. Anti-EE monoclonal antibody (1 mg/ml) (BAbCo) was added, and the mixture was incubated with shaking for 30 minutes. Immune complexes were precipitated with protein G-agarose beads for an additional 30 minutes at 4° C. The beads were washed with 500 l ice-cold NET-gel buffer three times.

[4] = molecular target: T3, interaction between HPV16 E1 and E2 (Human papillomavirus type 16, UniProt P03114); test: In vitro HPV E1-E2 binding assay (co-immunoprecipitation / Western blot), HPV16 E1 and HPV16 E2
T3 construct: made in house; host or cells: Hi-Five insect cells infected with recombinant baculovirus (pVL1392); nuclear extracts
Method: as §1, §2

Row | Substance | inhibition of HPV16 E1-E2 interaction [1] | inhibition of in vitro HPV16 DNA replication [2] | inhibition of HPV-16 E1-E2 interaction (E1-E2 complex formation) [3] | inhibition of HPV16 E1-E2 interaction ([4]; increasing peptide concentrations, FIG. 6A) | mode of inhibition of E1-E2 interaction ([4]; inhibition plotted as a function of substrate concentration (data not shown))
1 | E2N-MP23: 23-mer peptide of HPV16 E2 aa 29-51 containing alanine at the position analogous to E39 (HIDYWKHMRLACAIYYKAREMGF; UniProt P03120 29-51, looked up, variant E39A) | did not inhibit E1-E2 interaction at concentrations at which the wild type peptide could do so | wild type peptides inhibited replication much more effectively than the respective E39A substituted analog |  |  | 
2 | ERQIKIWFQNRRMKWKKGGWKHMRLECAIYYKAR [Ant-WP] |  |  | comparable to that of wild-type peptide |  | 
3 | GRKKRRQRRRPPQCGGWKHMRLECAIYYKAR (cysteine pairing not given here) [Tat-WP] |  |  | not inhibited |  | 
4 | HIDYWKHMRLECAIYYKAREMGF [E2N-WP23] |  | could effectively inhibit in vitro replication |  | inhibitory effects | competitive inhibition
